Assay results reported in patent US20240417410A1, “TRICYCLIC COMPOUNDS FOR THE TREATMENT OF CANCER” (Hoffmann-La Roche Inc., priority 2023, published 2024).

What was measured:
AGS cells (KRAS G12D) = assay: Cell viability assay (Cell Counting Kit-8, 3-day); type: cell-based, human; conditions: Homo sapiens, 72 h, 72 hrs incubation
Method in brief: (§1)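 Cells were seeded at 5,000 cells/well (NCI-H358) or 2,000 cells/well (AGS, SW620), incubated overnight, then treated with compounds in 0.5% DMSO final for 72 hrs. CCK-8 was added and OD450 minus OD650 read after 2 hrs; IC50 came from a 4-parameter sigmoidal fit.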

[1] = tested on: NCI-H358 cells (KRAS G12C); assay: Cell viability assay (Cell Counting Kit-8, 3-day); type: cell-based, human; conditions: Homo sapiens, NCI-H358, 72 h, NCI-H358, 72 hrs incubation
Method in brief: as §1

SW620 cells (KRAS G12V) = assay: Cell viability assay (Cell Counting Kit-8, 3-day); type: cell-based, human; conditions: Homo sapiens, SW-620; SW620, 72 hrs incubation
Method in brief: as §1

KRAS G12C-BRAF complex = KRAS G12C-BRAF complex (Homo sapiens (Human), UniProt P01116+P62937, G12C); assay: KRAS-BRAF with CYPA (500 nM) interaction assay (TR-FRET, Example 136); type: biochemical; conditions: KRAS G12C-BRAF disruption
[2] = tested on: phosphorylation of ERK, KRAS G12C in NCI-H358 cells; assay: pERK inhibition assay; type: cell-based; conditions: Homo sapiens, NCI-H358, 4 h
Method in brief: (§2)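 NCI-H358 (KRAS G12C), AGS (G12D) and SW620 (G12V) cells plated overnight, then treated with compound for 4 h in 0.5% DMSO. After fixing and methanol permeabilisation, phospho-ERK was detected by in-cell ELISA (HRP/TMB, OD450). IC50 from a 4-parameter sigmoidal fit.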

[3] = tested on: phosphorylation of ERK, KRAS G12D in AGS cells; assay: pERK inhibition assay; type: cell-based; conditions: Homo sapiens, AGS, 4 h
Method in brief: as §2

[4] = tested on: phosphorylation of ERK, KRAS G12V in SW620; assay: pERK inhibition assay; type: cell-based; conditions: Homo sapiens, SW-620, 4 h, SW620 cells
Method in brief: as §2

Chain of KRAS G12C-BRAF complex (P01116-2 other isoform, or with tags, fused parts or gaps G12C): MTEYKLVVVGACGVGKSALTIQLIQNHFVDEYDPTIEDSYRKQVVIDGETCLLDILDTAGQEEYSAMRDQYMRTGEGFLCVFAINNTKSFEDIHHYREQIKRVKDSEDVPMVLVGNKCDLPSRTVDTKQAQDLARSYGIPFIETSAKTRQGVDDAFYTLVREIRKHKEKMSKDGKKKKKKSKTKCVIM
Chain of KRAS G12C-BRAF complex (P62937 whole entry): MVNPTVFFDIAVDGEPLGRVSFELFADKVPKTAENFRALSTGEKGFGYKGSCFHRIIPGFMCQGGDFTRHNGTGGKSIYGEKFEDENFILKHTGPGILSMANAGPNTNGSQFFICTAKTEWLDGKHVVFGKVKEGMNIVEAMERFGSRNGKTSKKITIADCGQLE

Row | SMILES | IC50 (AGS cells (KRAS G12D)) | IC50 [1] | IC50 (SW620 cells (KRAS G12V)) | IC50 (KRAS G12C-BRAF complex) | IC50 [2] | IC50 [3] | IC50 [4]
1 | COCCN1CCN(c2cnc([C@H](C)OC)c(-c3c4c5cc(cc6c5n3CCC6)-c3csc(n3)C[C@H](NC(=O)[C@H]3[C@H](C)[C@@H]3C)C(=O)N3CCC[C@H](N3)C(=O)OCC(C)(C)C4)c2)CC1 (atropisomer, axis not shown; (M)) [Example 115, (1r,2S,3R)-N-[(7S,13S)-(20M)-20-[2-[(1S)-1-methoxyethyl]-5-[4-(2-methoxyethyl)piperazin-1-yl]-3-pyridyl]-17,17-dimethyl-8,14-dioxo-15-oxa-4-thia-9,21,30,31-tetrazahexacyclo[23.3.1.1^2,5.1^9,13.0^19,27.0^21,26]hentriaconta-1 (28),2,5 (31), 19,25 (29),26-hexaen-7-yl]-2,3-dimethyl-cyclopropanecarboxamide] | 3.4 nM | 1.7 nM | 0.4 nM | 18.5 nM | 0.8 nM | 2.6 nM | 0.2 nM
2 | CO[C@@H](C)c1ncc(N2CCN(C)CC2)cc1-c1c2c3cc(cc4c3n1CCCO4)-c1csc(n1)C[C@H](NC(=O)[C@H]1[C@H](C)[C@@H]1C)C(=O)N1CCC[C@H](N1)C(=O)OCC(C)(C)C2 (atropisomer, axis not shown; (M)) [Example 100, (1r,2R,3S)-N-[(7S,13S)-(20M)-20-[2-[(1S)-1-methoxyethyl]-5-(4-methylpiperazin-1-yl)-3-pyridyl]-17,17-dimethyl-8,14-dioxo-15,25-dioxa-4-thia-9,21,31,32-tetrazahexacyclo[24.3.1.1^2,5.1^9,13.0^19,28.0^21,27]dotriaconta-1 (29),2,5 (32),19,26 (30),27-hexaen-7-yl]-2,3-dimethyl-cyclopropanecarboxamide] | 8.2 nM | 2.7 nM | 0.7 nM | 33.1 nM | 1 nM | 4.1 nM | 0.7 nM
3 | CO[C@@H](C)c1ncc(N2CCN(C)CC2)cc1-c1c2c3cc(cc4c3n1CCC4)-c1csc(n1)C[C@H](NC(=O)[C@H]1[C@@H]3CC(F)(F)C[C@@H]31)C(=O)N1CCC[C@H](N1)C(=O)OCC(C)(C)C2 (atropisomer, axis not shown; (M)) [Example 48, (1S,5R)-3,3-difluoro-N-[(7S,13S)-(20M)-20-[2-[(1S)-1-methoxyethyl]-5-(4-methylpiperazin-1-yl)-3-pyridyl]-17,17-dimethyl-8,14-dioxo-15-oxa-4-thia-9,21,30,31-tetrazahexacyclo[23.3.1.1^2,5.1^9,13.0^19,27.0^21,26]hentriaconta-1 (28),2,5 (31), 19,25 (29),26-hexaen-7-yl]bicyclo[3.1.0]hexane-6-carboxamide] | 26.5 nM | 9.5 nM | 1.7 nM | 4.4 nM | 1.2 nM | 10.1 nM | 1 nM
4 | CO[C@@H](C)c1ncc(N2CCN(C)CC2)cc1-c1c2c3cc(cc4c3n1CCC4)-c1csc(n1)C[C@H](NC(=O)[C@@H]1C[C@H]1c1ncccn1)C(=O)N1CCC[C@H](N1)C(=O)OCC(C)(C)C2 (atropisomer, axis not shown) [Example 81, (1R,2R)-N-[(7S,13S)-20-[2-[(1S)-1-methoxyethyl]-5-(4-methylpiperazin-1-yl)-3-pyridyl]-17,17-dimethyl-8,14-dioxo-15-oxa-4-thia-9,21,30,31-tetrazahexacyclo[23.3.1.1^2,5.1^9,13.0^19,27.0^21,26]hentriaconta-1 (28),2,5 (31),19,25 (29),26-hexaen-7-yl]-2-pyrimidin-2-yl-cyclopropanecarboxamide] | 23.4 nM | 5.3 nM | 0.8 nM | 30.5 nM | 1.6 nM | 6.5 nM | 1.2 nM
5 | CO[C@@H](C)c1ncc(N2CCN(C3CC3)CC2)cc1-c1c2c3cc(cc4c3n1CCO4)-c1csc(n1)C[C@H](NC(=O)[C@H]1[C@H](C)[C@@H]1C)C(=O)N1CCC[C@H](N1)C(=O)OCC(C)(C)C2 (atropisomer, axis not shown; (M)) [Example 106, (1r,2R,3S)-N-[(7S,13S)-(20M)-20-[5-(4-cyclopropylpiperazin-1-yl)-2-[(1S)-1-methoxyethyl]-3-pyridyl]-17,17-dimethyl-8,14-dioxo-15,24-dioxa-4-thia-9,21,30,31-tetrazahexacyclo[23.3.1.1^2,5.1^9,13.0^19,27.0^21,26]hentriaconta-1 (28),2,5 (31),19,25 (29),26-hexaen-7-yl]-2,3-dimethyl-cyclopropanecarboxamide] | 8.7 nM | 4.4 nM | 0.4 nM | 10.8 nM | 1.1 nM | 3.1 nM | 0.4 nM
6 | CO[C@@H](C)c1ncc(N2CCN3CCCC[C@@H]3C2)cc1-c1c2c3cc(cc4c3n1CCC4)-c1csc(n1)C[C@H](NC(=O)[C@H]1C[C@@H]1c1cccnc1)C(=O)N1CCC[C@H](N1)C(=O)OCC(C)(C)C2 (atropisomer, axis not shown; (M)) [Example 102, (1S,2S)-N-[(7S,13S)-(20M)-20-[5-[(9αR)-1,3,4,6,7,8,9,9a-octahydropyrido[1,2-a]pyrazin-2-yl]-2-[(1S)-1-methoxyethyl]-3-pyridyl]-17,17-dimethyl-8,14-dioxo-15-oxa-4-thia-9,21,30,31-tetrazahexacyclo[23.3.1.1^2,5.1^9,13.0^19,27.0^21,26]hentriaconta-1 (28),2,5 (31),19,25 (29),26-hexaen-7-yl]-2-(3-pyridyl)cyclopropanecarboxamide] | 4.9 nM | 1.2 nM | 0.4 nM | 6.5 nM | 1.1 nM | 2 nM | 0.7 nM
7 | CO[C@@H](C)c1ncc(N2CCN(C)CC2)cc1-c1c2c3cc(cc4c3n1CCC4)-c1csc(n1)C[C@H](NC(=O)[C@H]1C[C@@H]1c1ccccc1)C(=O)N1CCC[C@H](N1)C(=O)OCC(C)(C)C2 (atropisomer, axis not shown; (M)) [Example 22, (1S,2S)-N-[(7S,13S)-(20M)-20-[2-[(1S)-1-methoxyethyl]-5-(4-methylpiperazin-1-yl)-3-pyridyl]-17,17-dimethyl-8,14-dioxo-15-oxa-4-thia-9,21,30,31-tetrazahexacyclo[23.3.1.1^2,5.1^9,13.0^19,27.0^21,26]hentriaconta-1 (28),2,5 (31), 19,25 (29),26-hexaen-7-yl]-2-phenyl-cyclopropanecarboxamide] | 14.2 nM | 3.1 nM | 0.8 nM | 6.4 nM | 0.6 nM | 3.8 nM | 0.7 nM
8 | CO[C@@H](C)c1ncc(N2CCN(CCN3CCCC3=O)CC2)cc1-c1c2c3cc(cc4c3n1CCC4)-c1csc(n1)C[C@H](NC(=O)[C@H]1[C@H](C)[C@@H]1C)C(=O)N1CCC[C@H](N1)C(=O)OCC(C)(C)C2 (atropisomer, axis not shown; (M)) [Example 121, (1r,2R,3S)-N-[(7S,13S)-(20M)-20-[2-[(1S)-1-methoxyethyl]-5-[4-[2-(2-oxopyrrolidin-1-yl)ethyl]piperazin-1-yl]-3-pyridyl]-17,17-dimethyl-8,14-dioxo-15-oxa-4-thia-9,21,30,31-tetrazahexacyclo[23.3.1.1^2,5.1^9,13.0^19,27.0^21,26]hentriaconta-1 (28),2,5 (31), 19,25 (29),26-hexaen-7-yl]-2,3-dimethyl-cyclopropanecarboxamide] | 2.4 nM | 1.6 nM | 0.3 nM | 13 nM | 0.9 nM | 3.4 nM | 0.3 nM
9 | CO[C@@H](C)c1ncc(N2CCN3CCCC[C@@H]3C2)cc1-c1c2c3cc(cc4c3n1CCC4)-c1csc(n1)C[C@H](NC(=O)[C@H]1[C@H](C)[C@@H]1C)C(=O)N1CCC[C@H](N1)C(=O)OCC(C)(C)C2 (atropisomer, axis not shown; (M)) [Example 101, (1r,2S,3R)-N-[(7S,13S)-(20M)-20-[5-[(9αR)-1,3,4,6,7,8,9,9a-octahydropyrido[1,2-a]pyrazin-2-yl]-2-[(1S)-1-methoxyethyl]-3-pyridyl]-17,17-dimethyl-8,14-dioxo-15-oxa-4-thia-9,21,30,31-tetrazahexacyclo[23.3.1.1^2,5.1^9,13.0^19,27.0^21,26]hentriaconta-1 (28),2,5 (31),19,25 (29),26-hexaen-7-yl]-2,3-dimethyl-cyclopropanecarboxamide] | 6.9 nM | 1.8 nM | 0.3 nM | 5.4 nM | 0.9 nM | 2.6 nM | 0.2 nM
